Data from the supplement of paper PMC11451515.

Tested on: NOMO1
Assay: cell viability relative to DMSO control; higher = less cytotoxic
Conditions: 48 h
In short: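 Viability was expressed as a per-plate percentage of DMSO wells, with cell-free wells as background. Leukemia cells (NOMO1 or SEM at 500 cells/well, P12-Ichikawa at 1000 cells/well) were adapted for at least four passages in each medium and seeded in 1536-well plates (5 μl). Library compounds in DMSO were pin-dosed over an 11-point threefold series from 47 μM to 0.79 nM, and CellTiter-Glo One luminescence was read after 48 h at 37°C.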

[1] = RPMI 5 mM glucose + 10% FBS, 0.000781 µM
[2] = RPMI 5 mM glucose + 10% FBS, 0.00234 µM
[3] = RPMI 5 mM glucose + 10% FBS, 0.00702 µM
[4] = RPMI 5 mM glucose + 10% FBS, 0.0211 µM
[5] = RPMI 5 mM glucose + 10% FBS, 0.0632 µM
[6] = RPMI 5 mM glucose + 10% FBS, 0.19 µM
[7] = RPMI 5 mM glucose + 10% FBS, 0.569 µM
[8] = RPMI 5 mM glucose + 10% FBS, 1.71 µM
[9] = RPMI 5 mM glucose + 10% FBS, 5.12 µM
[10] = RPMI 5 mM glucose + 10% FBS, 15.4 µM
[11] = RPMI 5 mM glucose + 10% FBS, 46.1 µM
[12] = RPMI 5 mM glucose + 10% dialyzed FBS, 0.000781 µM
[13] = RPMI 5 mM glucose + 10% dialyzed FBS, 0.00234 µM
[14] = RPMI 5 mM glucose + 10% dialyzed FBS, 0.00702 µM
[15] = RPMI 5 mM glucose + 10% dialyzed FBS, 0.0211 µM
[16] = RPMI 5 mM glucose + 10% dialyzed FBS, 0.0632 µM
[17] = RPMI 5 mM glucose + 10% dialyzed FBS, 0.19 µM
[18] = RPMI 5 mM glucose + 10% dialyzed FBS, 0.569 µM
[19] = RPMI 5 mM glucose + 10% dialyzed FBS, 1.71 µM
[20] = RPMI 5 mM glucose + 10% dialyzed FBS, 5.12 µM
[21] = RPMI 5 mM glucose + 10% dialyzed FBS, 15.4 µM
[22] = RPMI 5 mM glucose + 10% dialyzed FBS, 46.1 µM
[23] = HPLM + 10% dialyzed FBS, 0.000781 µM
[24] = HPLM + 10% dialyzed FBS, 0.00234 µM
[25] = HPLM + 10% dialyzed FBS, 0.00702 µM
[26] = HPLM + 10% dialyzed FBS, 0.0211 µM
[27] = HPLM + 10% dialyzed FBS, 0.0632 µM
[28] = HPLM + 10% dialyzed FBS, 0.19 µM
[29] = HPLM + 10% dialyzed FBS, 0.569 µM
[30] = HPLM + 10% dialyzed FBS, 1.71 µM
[31] = HPLM + 10% dialyzed FBS, 5.12 µM
[32] = HPLM + 10% dialyzed FBS, 15.4 µM
[33] = HPLM + 10% dialyzed FBS, 46.1 µM

| Compound | cell viability [1] | cell viability [2] | cell viability [3] | cell viability [4] | cell viability [5] | cell viability [6] | cell viability [7] | cell viability [8] | cell viability [9] | cell viability [10] | cell viability [11] | cell viability [12] | cell viability [13] | cell viability [14] | cell viability [15] | cell viability [16] | cell viability [17] | cell viability [18] | cell viability [19] | cell viability [20] | cell viability [21] | cell viability [22] | cell viability [23] | cell viability [24] | cell viability [25] | cell viability [26] | cell viability [27] | cell viability [28] | cell viability [29] | cell viability [30] | cell viability [31] | cell viability [32] | cell viability [33] |
| --- | --- | --- | --- | --- | --- | --- | --- | --- | --- | --- | --- | --- | --- | --- | --- | --- | --- | --- | --- | --- | --- | --- | --- | --- | --- | --- | --- | --- | --- | --- | --- | --- | --- |
| CC(C)NCC(O)COc1ccc(CCOCC2CC2)cc1 (stereo unspecified) | 118% | 128% | 107% | 109% | 105% | 107% | 109% | 110% | 114% | 102% | 19.9% | 121% | 125% | 122% | 117% | 119% | 118% | 129% | 113% | 116% | 99.1% | 20.9% | – | – | – | – | – | – | – | – | – | – | – |
| Cc1cn(CCN2CCN(c3ccccc3-c3cc(C#N)cc(C(=O)NCCCN4CCCC4)c3)CC2)c2ccccc12 | 102% | 110% | 115% | 109% | 125% | 119% | 119% | 112% | 108% | 38.4% | 22.7% | 119% | 102% | 109% | 119% | 120% | 110% | 124% | 112% | 96.4% | 44.5% | 25.5% | 103% | 111% | 111% | 121% | 148% | 130% | 127% | 134% | 85.3% | 35.3% | 10.7% |
| C[N+](C)([O-])CCNc1ccc(NCC[N+](C)(C)[O-])c2c1C(=O)c1c(O)ccc(O)c1C2=O | 84.4% | 86.9% | 84.1% | 97.2% | 89.4% | 94.5% | 91.4% | 90.4% | 33% | 55.8% | 19.8% | 90.3% | 93.6% | 92.6% | 92.7% | 102% | 99.6% | 90.5% | 77% | 59.7% | 48.5% | 44% | 84.5% | 94.9% | 96.7% | 103% | 108% | 97.2% | 80.6% | 70.2% | 51.2% | 48% | 38.3% |
| CCN(C)C(=O)Oc1cccc([C@H](C)N(C)C)c1 | 95.9% | 102% | 99.3% | 105% | 108% | 94.4% | 108% | 111% | 92.6% | 112% | 98.4% | 101% | 98.3% | 104% | 111% | 109% | 97.7% | 91.6% | 87.1% | 105% | 98.5% | 110% | 110% | 117% | 124% | 128% | 102% | 110% | 122% | 95.3% | 99.9% | 109% | 106% |
| Cc1ccc(-c2ncn(-c3ccc(Nc4nccc(-c5cccc(N6CCOCC6)c5)n4)cc3)n2)cn1 | 88.4% | 40% | 80.9% | 94.6% | 86.4% | 87.4% | 16.4% | 8.16% | 7.21% | 5.58% | 6.57% | 87.7% | 94.2% | 88.9% | 97.8% | 94.9% | 89.2% | 20.3% | 8.8% | 8.22% | 7.85% | 5.33% | 94.8% | 90.9% | 96.8% | 109% | 105% | 87.8% | 13.6% | 10.2% | 7.32% | 8.09% | 5.6% |
| O=C(CCc1ccc(O)cc1)c1c(O)cc(O)cc1O[C@@H]1O[C@H](CO)[C@@H](O)[C@H](O)[C@H]1O | 82.5% | 80.8% | 81.7% | 77% | 92.1% | 86.1% | 82.4% | 78.1% | 85.4% | 75.1% | 84.8% | 104% | 96% | 115% | 105% | 115% | 106% | 50.2% | 73.1% | 85.1% | 53.1% | 81.2% | – | – | – | – | – | – | – | – | – | – | – |
